Results from PubChem BioAssay AID248 (DTP/NCI, 2004).
“And” between values parts separate entries of the source, which are not always exact repeats. Equal entries are not always repeated. Inconclusive results and toxic doses are left out. Cut-off read from the data, not from the text of the source: active = T/C of 150% or more; inactive = T/C below 125%.

Tested on: L1210 leukemia ip in BDF1 mice, survival T/C
Assay: NCI In Vivo Anticancer Drug Screen. Data for tumor model L1210 Leukemia (intraperitoneal) in B6D2F1 (BDF1) mice
Settings: endpoint: mean survival time, higher = longer survival
How it was run: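 Antitumor effect is assessed in tumor-bearing animals. Survival in the compound arm is compared with a vehicle-dosed control arm and expressed as their quotient.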

[1] = dose: 100.0 mg/kg/injection, schedule: Q04DX003 (ip), vehicle: Klucel (hydroxypropylcellulose) (HPC)
[2] = dose: 200.0 mg/kg/injection, schedule: Q04DX003 (ip), vehicle: Klucel (hydroxypropylcellulose) (HPC)
[3] = dose: 400.0 mg/kg/injection, schedule: Q04DX003 (ip), vehicle: Klucel (hydroxypropylcellulose) (HPC)
[4] = dose: 100.0 mg/kg/injection, schedule: Q01DX009 (ip), vehicle: saline
[5] = dose: 200.0 mg/kg/injection, schedule: Q01DX009 (ip), vehicle: saline
[6] = dose: 400.0 mg/kg/injection, schedule: Q01DX009 (ip), vehicle: saline
[7] = dose: 100.0 mg/kg/injection, schedule: Q04DX003 (ip), vehicle: saline with Tween-80
[8] = dose: 200.0 mg/kg/injection, schedule: Q04DX003 (ip), vehicle: saline with Tween-80
[9] = dose: 400.0 mg/kg/injection, schedule: Q04DX003 (ip), vehicle: saline with Tween-80
[10] = dose: 100.0 mg/kg/injection, schedule: Q04DX002 (ip), vehicle: saline with Tween-80
[11] = dose: 200.0 mg/kg/injection, schedule: Q04DX002 (ip), vehicle: saline with Tween-80
[12] = dose: 100.0 mg/kg/injection, schedule: Q01DX009 (ip), vehicle: saline with Tween-80
[13] = dose: 12.5 mg/kg/injection, schedule: Q01DX009 (ip), vehicle: saline with Tween-80
[14] = dose: 100.0 mg/kg/injection, schedule: Q04DX003 (ip), vehicle: saline
[15] = dose: 100.0 mg/kg/injection, schedule: Q01DX009 (ip), vehicle: Klucel (hydroxypropylcellulose) (HPC)
[16] = dose: 200.0 mg/kg/injection, schedule: Q01DX009 (ip), vehicle: Klucel (hydroxypropylcellulose) (HPC)
[17] = dose: 400.0 mg/kg/injection, schedule: Q01DX009 (ip), vehicle: Klucel (hydroxypropylcellulose) (HPC)
[18] = dose: 100.0 mg/kg/injection, schedule: Q01DX001 (ip), vehicle: Klucel (hydroxypropylcellulose) (HPC)
[19] = dose: 200.0 mg/kg/injection, schedule: Q01DX001 (ip), vehicle: Klucel (hydroxypropylcellulose) (HPC)

Measured: T/C

COc1cc(C=Nc2ccccc2)ccc1OC(=O)c1ccccc1
inactive: dose: 100.0 mg/kg/injection, schedule: Q04DX002 (ip), vehicle: gum acacia 103 % of control | dose: 200.0 mg/kg/injection, schedule: Q04DX002 (ip), vehicle: gum acacia 95 % of control | dose: 400.0 mg/kg/injection, schedule: Q04DX002 (ip), vehicle: gum acacia 88 % of control

O=Nc1[nH]c(O)c2ccccc12
inactive: [1] 97 % of control and 91 % of control | [2] 99 % of control and 103 % of control | [3] 103 % of control and 89 % of control

CC(C)N1C(=O)OC2(CCN(CCCSc3ccc(F)cc3)CC2)C1=O
inactive: [1] 103 % of control | [2] 103 % of control | [3] 103 % of control

COC(=O)NCC1OC(n2cnc3c(N)ncnc32)C(O)C1O (stereo not given)
inactive: dose: 100.0 mg/kg/injection, schedule: Q01DX005 (ip), vehicle: saline 92 % of control | dose: 200.0 mg/kg/injection, schedule: Q01DX005 (ip), vehicle: saline 94 % of control

CCOC(=O)/C=C/c1c(Cl)nc2ccccn2c1=O
inactive: dose: 100.0 mg/kg/injection, schedule: Q01DX001 (ip), vehicle: saline with Tween-80 96 % of control | [4] 90 % of control | dose: 200.0 mg/kg/injection, schedule: Q01DX001 (ip), vehicle: saline with Tween-80 94 % of control | [5] 90 % of control | dose: 400.0 mg/kg/injection, schedule: Q01DX001 (ip), vehicle: saline with Tween-80 92 % of control | [6] 95 % of control

Oc1c(CN2CCOCC2)cc(CN2CCOCC2)cc1CN1CCOCC1
inactive: dose: 100.0 mg/kg/injection, schedule: Q01DX001 (ip), vehicle: saline 116 % of control | [4] 95 % of control | [7] 104 % of control | dose: 200.0 mg/kg/injection, schedule: Q01DX001 (ip), vehicle: saline 98 % of control | [5] 90 % of control | [8] 95 % of control | dose: 400.0 mg/kg/injection, schedule: Q01DX001 (ip), vehicle: saline 96 % of control | [6] 100 % of control | [9] 98 % of control

CCOC(=O)NC1c2ccccc2Oc2ccccc21
inactive: dose: 75.0 mg/kg/injection, schedule: Q01DX009 (ip), vehicle: saline 115 % of control | dose: 100.0 mg/kg/injection, schedule: Q04DX002 (ip), vehicle: Klucel (hydroxypropylcellulose) (HPC) 102 % of control | dose: 150.0 mg/kg/injection, schedule: Q01DX009 (ip), vehicle: saline 103 % of control | dose: 200.0 mg/kg/injection, schedule: Q04DX002 (ip), vehicle: Klucel (hydroxypropylcellulose) (HPC) 105 % of control | dose: 300.0 mg/kg/injection, schedule: Q01DX009 (ip), vehicle: saline 111 % of control | dose: 400.0 mg/kg/injection, schedule: Q04DX002 (ip), vehicle: Klucel (hydroxypropylcellulose) (HPC) 102 % of control

CN(C)Cc1c(O)ccc2ccccc12
inactive: [10] 100 % of control | [11] 90 % of control

O=C(O)CN1C(=O)C2C3C=CC(C3)C2C1=O (stereo not given)
inactive: [7] 97 % of control | [8] 94 % of control | [9] 94 % of control

Brc1cc(Cc2c(Br)csc2Br)c(Br)s1
inactive: [10] 101 % of control | [11] 101 % of control | dose: 400.0 mg/kg/injection, schedule: Q04DX002 (ip), vehicle: saline with Tween-80 101 % of control

c1ccc([Si](C[CH2][Sn]([c]2ccccc2)([c]2ccccc2)[c]2ccccc2)(c2ccccc2)c2ccc([Si](C[CH2][Sn]([c]3ccccc3)([c]3ccccc3)[c]3ccccc3)(c3ccccc3)c3ccccc3)cc2)cc1
inactive: [7] 100 % of control | [8] 96 % of control | [9] 96 % of control

CC1CN(C(=N)C#N)C(C)CN1C(=N)C#N (stereo not given)
inactive: [12] 92 % of control | [7] 109 % of control | [8] 104 % of control

Nc1nc2nc(CC(=O)C(=O)O)c(=O)[nH]c2c(=O)[nH]1
inactive: dose: 3.12 mg/kg/injection, schedule: Q01DX009 (ip), vehicle: saline with Tween-80 97 % of control | dose: 6.25 mg/kg/injection, schedule: Q01DX009 (ip), vehicle: saline with Tween-80 101 % of control | [13] 103 % of control | dose: 12.5 mg/kg/injection, schedule: Q04DX003 (ip), vehicle: saline 105 % of control | dose: 25.0 mg/kg/injection, schedule: Q04DX003 (ip), vehicle: saline 111 % of control | dose: 50.0 mg/kg/injection, schedule: Q01DX009 (ip), vehicle: saline 97 % of control | dose: 50.0 mg/kg/injection, schedule: Q04DX003 (ip), vehicle: saline 104 % of control | [14] 106 % of control

Cc1ccccc1NC(=O)C1CCC(C)(C(=O)O)C1(C)C (stereo not given)
inactive: [12] 102 % of control | dose: 200.0 mg/kg/injection, schedule: Q01DX009 (ip), vehicle: saline with Tween-80 102 % of control | dose: 400.0 mg/kg/injection, schedule: Q01DX009 (ip), vehicle: saline with Tween-80 95 % of control

CCCCCCCCCCCc1cc(=O)n(-c2ccccc2)n1C
inactive: dose: 12.5 mg/kg/injection, schedule: Q04DX003 (ip), vehicle: saline with Tween-80 92 % of control | dose: 25.0 mg/kg/injection, schedule: Q04DX003 (ip), vehicle: saline with Tween-80 98 % of control | dose: 50.0 mg/kg/injection, schedule: Q04DX003 (ip), vehicle: saline with Tween-80 95 % of control | [8] 102 % of control

Cc1cc(Cl)ccc1NC(=O)c1ccc(Cl)cc1Cl
inactive: [15] 96 % of control | [1] 95 % of control | [16] 91 % of control | [2] 92 % of control | [17] 94 % of control | [3] 88 % of control

COC(=O)c1ccccc1Cc1cccc2c(Cl)cccc12
inactive: [18] 97 % of control | [19] 98 % of control | dose: 400.0 mg/kg/injection, schedule: Q01DX001 (ip), vehicle: Klucel (hydroxypropylcellulose) (HPC) 106 % of control

COCCOCCOCCOCCOCCOC
inactive: [13] 104 % of control | dose: 25.0 mg/kg/injection, schedule: Q01DX009 (ip), vehicle: saline with Tween-80 94 % of control | dose: 50.0 mg/kg/injection, schedule: Q01DX009 (ip), vehicle: saline with Tween-80 105 % of control

C=C(C)C(C(=O)OC)n1scc(NCc2ccccc2)c1=O (stereo not given)
inactive: [14] 91 % of control | dose: 200.0 mg/kg/injection, schedule: Q04DX003 (ip), vehicle: saline 91 % of control | dose: 400.0 mg/kg/injection, schedule: Q04DX003 (ip), vehicle: saline 89 % of control

O=C1NC(=O)N(c2ccccc2)C(=O)/C1=C/c1ccccc1
inactive: [18] 90 % of control | [19] 97 % of control

O=[N+]([O-])c1cc([N+](=O)[O-])c(NN(c2ccccc2)c2cccc3ccccc23)c([N+](=O)[O-])c1
inactive: dose: 50.0 mg/kg/injection, schedule: Q01DX009 (ip), vehicle: Klucel (hydroxypropylcellulose) (HPC) 101 % of control | [15] 101 % of control | [1] 96 % of control | [16] 102 % of control | [2] 94 % of control | [17] 98 % of control | [3] 94 % of control
